In assay [1] the target is T1, Testis-expressed protein 264 (Homo sapiens, UniProt Q9Y6I9).
T1 sequence (Q9Y6I9 whole entry): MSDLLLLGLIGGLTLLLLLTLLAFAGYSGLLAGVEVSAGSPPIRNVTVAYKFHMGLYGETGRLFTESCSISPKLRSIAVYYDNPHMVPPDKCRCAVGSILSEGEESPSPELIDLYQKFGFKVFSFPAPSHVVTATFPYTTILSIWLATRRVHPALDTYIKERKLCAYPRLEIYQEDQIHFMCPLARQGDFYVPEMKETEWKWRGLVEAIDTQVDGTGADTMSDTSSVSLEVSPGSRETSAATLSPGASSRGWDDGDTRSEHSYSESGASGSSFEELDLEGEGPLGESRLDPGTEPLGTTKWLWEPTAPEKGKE
Description: Inhibition of TEX264 (unknown origin)

Assay [2] can be described thus: cells. Particulars: Homo sapiens, NCI-H1975.
Description: Inhibition of MAPK/ERK signaling pathway in human NCI-H1975 cells
In assay [3] the target is Tubulin. Particulars: k562.
Description: Inhibition of microtubule polymerization in human K562 cells measured for 60 mins by fluorescence based analysis
In assay [4] the target is T2, 5'-AMP-activated protein kinase catalytic subunit alpha-2 (Homo sapiens, UniProt P54646).
The nature of assay [5]: cells. Particulars: Homo sapiens, HK-2, 6 h.
Description: Downregulation of BNIP3 expression in human HK-2 cells incubated for 6 hrs by Western blot analysis
The test system of assay [6] is HCT-116. The assay can be described thus: cells. Particulars: Homo sapiens, HCT-116, 24 h.
Description: Induction of autophagy in human HCT-116 cells assessed as increase in p62 expression upto 5 uM incubated for 24 hrs by Western blot analysis
Assay [7] concerns the target T2, 5'-AMP-activated protein kinase catalytic subunit alpha-2. The source holds these as a separate data set.
Description: Agonist activity at AMPK (unknown origin)
Assay [8] deals with Phosphatidylinositol 3-kinase catalytic subunit type 3 (Homo sapiens, UniProt Q8NEB9).
Description: Inhibition of human PIK3C3 using PI as substrate by ADP-Glo assay
For assay [9], the target named is T3, Phosphatidylinositol 4,5-bisphosphate 3-kinase catalytic subunit alpha isoform (Homo sapiens, UniProt P42336).
Description: Inhibition of PI3Kalpha (unknown origin) by kinase profiling assay
Assay [10] has as its target T4, Translocator protein (Mus musculus, UniProt P50637). The assay can be described thus: Binding affinity to mouse TSPO expressed in Escherichia coli assessed as inhibition constant.
Assay [11] has as its target T5, Tumour suppressor protein p53/Mdm4 (Homo sapiens, UniProt O15151+P04637).
Description: Binding affinity to MDM4/p53 interaction (unknown origin) assessed as inhibition constant
Assay [12] has as its target T5, Tumour suppressor protein p53/Mdm4. The source holds these as a separate data set.
Description: Inhibition of MDM4/p53 (unknown origin)
A short description of assay [13]: cells. Particulars: Homo sapiens, PC-3.
Description: Inhibition of V-ATPase activity in lysosomes of human PC-3 cells
Assay [14] concerns the target T2, 5'-AMP-activated protein kinase catalytic subunit alpha-2. The source holds these as a separate data set.
Description: Inhibition of AMPK signalling pathway in human HepG2 cells
For assay [15], the target named is Tumour suppressor p53/oncoprotein Mdm2 (Homo sapiens, UniProt P04637+Q00987).
Description: Inhibition of MDM2/p53 interaction (unknown origin)
Assay [16] addresses T2, 5'-AMP-activated protein kinase catalytic subunit alpha-2. The source holds these as a separate data set.
Description: Binding affinity to AMPK (unknown origin) assessed as inhibition constant
Assay [17] has as its target T6, Cysteine protease ATG4B (Homo sapiens, UniProt Q9Y4P1).
T6 sequence (Q9Y4P1 whole entry): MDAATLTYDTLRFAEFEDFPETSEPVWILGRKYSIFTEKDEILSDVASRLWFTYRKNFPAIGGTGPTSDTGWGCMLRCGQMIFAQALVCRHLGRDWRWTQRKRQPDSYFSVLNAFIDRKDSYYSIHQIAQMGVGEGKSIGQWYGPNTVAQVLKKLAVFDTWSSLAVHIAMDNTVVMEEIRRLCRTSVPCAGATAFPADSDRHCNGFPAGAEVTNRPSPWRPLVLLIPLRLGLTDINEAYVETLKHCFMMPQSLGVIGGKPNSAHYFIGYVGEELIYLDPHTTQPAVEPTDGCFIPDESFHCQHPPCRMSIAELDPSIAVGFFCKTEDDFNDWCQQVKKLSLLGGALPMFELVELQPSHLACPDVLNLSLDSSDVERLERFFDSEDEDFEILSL
Description: Inhibition of ATG4B (unknown origin) using pim-FG-PABA-AMC as substrate by fluorescence based assay

In assay [18] the test system is PC-12. The assay can be described thus: cells. Particulars: Rattus norvegicus.
Description: Neuroprotective activity against rat PC12 cells assessed as decrease in H2O2-induced intracellular Ca2+ level preincubated for 12 hrs followed by H2O2-stimulation and measured after 12 hrs by Fluo-3 AM dye based flow cytometry
In assay [19] the target is Translocator protein (Rattus norvegicus, UniProt P16257).
Assay [20] has as its target T3, Phosphatidylinositol 4,5-bisphosphate 3-kinase catalytic subunit alpha isoform. This is another data set of the same source.
Description: Inhibition of PI3Kalpha (unknown origin)
Assay [21] deals with T4, Translocator protein.
In assay [22] the target is T2, 5'-AMP-activated protein kinase catalytic subunit alpha-2. The source holds these as a separate data set.
Description: Inhibition of AMPK (unknown origin)

SMILES strings stand for the structures. Where a SMILES comes first, the peptide text is derived from it. [ ]: non-standard residue; d: D form. pY = N[C@@H](Cc1ccc(OP(=O)(O)O)cc1)C(=O)O

As usually defined, the IC50 is the concentration needed to halve the response being measured. What is called EC50 is the concentration that produces a half-maximal response. Broadly, the Ki is the dissociation constant of the complex between target and ligand, obtained from inhibition or displacement.

As for `O=C(Oc1cccc(/C=N/Nc2nc(Nc3ccccc3)nc(N3CCOCC3)n2)c1)c1ccco1`, the IC50 in [1] amounted to 10 nM. In assay [2], `CC[C@@H]1[C@@H](C)O[C@@](O)([C@@H](C)[C@H](O)[C@H](C)[C@H]2OC(=O)/C=C/C=C/[C@H](C)[C@@H]([C@@H](C)[C@@H](O)[C@H](C)[C@@]3(O)C[C@@H](O[C@H]4C[C@H](O)[C@H](O)[C@H](C)O4)[C@H](CC)[C@@H](C)O3)OC(=O)/C=C/C=C/[C@@H]2C)C[C@H]1O[C@H]1C[C@H](O)[C@H](O)[C@H](C)O1` returned an IC50 of 4.2 nM. As for `CCOC(=O)c1[nH]c(Br)c(-c2ccc(OC)c(OC)c2)c1Br`, the 50% inhibitory concentration (IC50) in [3] came to 360 nM. As to `CNC(=O)c1ccccc1Oc1nc(Nc2cc(OC)c(OC)c(OC)c2)ncc1Br`, the IC50 in assay [4] was 108 nM. As to `Cc1ccc(NC(=O)NCc2ccc3c(c2)CN(C2CCC(=O)NC2=O)C3=O)cc1Cl` (stereo not given), the IC50 in [5] is 2 nM. Consider `CC(=O)N[C@@H](CC(C)C)C(=O)N[C@@H](CC(C)C)C(=O)N[C@H](C=O)CCCNC(=N)N`, for which the IC50 in assay [6] was found to be 2500 nM. With `N#CC1C(=O)Nc2scc(-c3ccc(-c4ccccc4O)cc3)c2C1=O` (stereo not given), a half-maximal effect in assay [7] (EC50) was put at 800 nM. In [1], `CN(Cc1ccccc1)S(=O)(=O)c1cc(C(=O)O)c(NCc2ccco2)cc1Cl` registered an IC50 of 15 nM. Turning to `CC(=O)O[C@H]1C(=O)[C@]2(C)[C@H](O)C[C@H]3OC[C@@]3(OC(C)=O)[C@H]2[C@H](OC(=O)c2ccccc2)[C@]2(O)C[C@H](OC(=O)[C@H](O)[C@@H](NC(=O)c3ccccc3)c3ccccc3)C(C)=C1C2(C)C`, in assay [2], the IC50 was determined as 5 nM. As for `C[C@@H]1COCCN1c1cc(N2CCCC[C@@H]2C(F)(F)F)[nH]c(=O)c1`, inhibition in assay [8] was half-maximal at 14 nM (IC50).

For the compound `BrNc1nc(N/N=C\c2c[nH]c3ccccc23)nc(N2CCOCC2)n1`, inhibition in assay [6] was half-maximal at 300 nM (IC50). With `OCc1c(C2CC2)nc2ccccc2c1-c1ccc(F)cc1`, the EC50 in [7] came out at 300 nM. `CC[C@H](C)[C@H](NC(=O)[C@H](CCCCN)NC(=O)[C@@H](NC(=O)[C@H](CCC(N)=O)NC(=O)[C@@H](N)CCCNC(=N)N)[C@@H](C)CC)C(=O)N[C@@H](Cc1c[nH]c2ccccc12)C(=O)N[C@@H](Cc1ccccc1)C(=O)N[C@@H](CCC(N)=O)C(=O)N[C@@H](CC(N)=O)C(=O)N[C@@H](CCCNC(=N)N)C(=O)N[C@@H](CCCNC(=N)N)C(=O)N[C@@H](CCSC)C(=O)N[C@@H](CCCCN)C(=O)N[C@@H](Cc1c[nH]c2ccccc12)C(=O)N[C@@H](CCCCN)C(=O)N[C@@H](CCCCN)C(=O)N[C@@H](CO)C(=O)N[C@@H](CC(=O)O)C(=O)NCC(=O)NCC(=O)N[C@@H](Cc1ccc(OP(=O)(O)O)cc1)C(=O)N[C@@H](CCSC)C(=O)N[C@@H](CC(=O)O)C(=O)N[C@@H](CCSC)C(=O)N[C@@H](CO)C(=O)O` (H-RQIKIWFQNRRMKWKKSDGG[pY]MDMS-OH): inhibition in [9] was half-maximal at 30000 nM (IC50).

Compound `C=CC(C1=CC(=O)C(OC)=CC1=O)c1ccccc1` (stereo not given) [4-METHOXYDALBERGIONE] displayed an IC50 in assay [2] of 2230 nM.

Take `CC[C@@H](C)N(C)C(=O)c1cc2ccccc2c(-c2ccccc2Cl)n1` [(R)PK-11195]: the Ki in assay [10] is 0.4 nM. For the compound `CN(C)CC[C@H](CSc1ccccc1)Nc1ccc(S(=O)(=O)NC(=O)c2ccc(N3CCN(Cc4ccccc4-c4ccc(Cl)cc4)CC3)cc2)cc1[N+](=O)[O-]` [ABT 737], in [11], affinity was put at a Ki of 0.8 nM. Compound `COc1ccc(S(=O)(=O)Nc2cccnc2Nc2ccc(O)cc2)cc1` [ABT-751] had an IC50 in assay [3] of 700 nM. `C[C@]12CCC(=O)C=C1CC[C@@H]1[C@@H]2[C@@H](O)C[C@]2(C=O)[C@@H](C(=O)CO)CC[C@@H]12` [ALDOSTERONE] came in with an EC50 in assay [7] of 1.3 nM. In [12], `C=CCS[S+]([O-])CC=C` (stereo not given) [ALLICIN] gave an IC50 of 11 nM. Regarding `CO/C1=C\C(C)=C\[C@@H](C)[C@@H](O)[C@@H](C)C/C(C)=C/C=C/[C@H](OC)[C@@H]([C@@H](C)[C@@H](O)[C@H](C)[C@@]2(O)C[C@@H](O)[C@H](C)[C@@H](C(C)C)O2)OC1=O` [BAFILOMYCIN A1], in [13], the IC50 is 0.06 nM. `COc1ccc2cc3[n+](cc2c1OC)CCc1cc2c(cc1-3)OCO2` [BERBERINE] came in with an IC50 in assay [14] of 12000 nM. As to `CC(C)=CCC/C(C)=C/Cc1c(O)cc2c(c1O)C(=O)C[C@@H](c1ccc(O)cc1)O2` [BONANNIONE A], inhibition in assay [15] was half-maximal at 3700 nM (IC50).

In the case of `C=C1C(=O)O[C@@H]2/C=C(\C)CC/C=C(\C)CC[C@@H]12` [COSTUNOLIDE], the IC50 in [2] stood at 2100 nM. For `c1cc(-c2cnn3cc(-c4ccc(OCCN5CCCCC5)cc4)cnc23)ccn1` [DORSOMORPHIN], in [16], the Ki worked out at 109 nM. In assay [17], `O=c1c2ccccc2[se]n1-c1ccccc1` [EBSELEN] registered an IC50 of 180 nM.

Turning to `O=C(O[C@@H]1Cc2c(O)cc(O)cc2O[C@@H]1c1cc(O)c(O)c(O)c1)c1cc(O)c(O)c(O)c1` [EPIGALOCATECHIN GALLATE], in assay [18], 30 nM corresponded to half-maximal inhibition (IC50). Turning to `CCN(CCO)CCCC(C)Nc1ccnc2cc(Cl)ccc12` (stereo not given) [HYDROXYCHLOROQUINE], the IC50 in [13] is 0.21 nM. In turn, `CC(C(O)c1ccc(O)cc1)N1CCC(Cc2ccccc2)CC1` (stereo not given) [IFENPRODIL] yielded an IC50 in assay [19] of 0.73 nM. Regarding `O=C1C[C@@H](c2ccc(O)cc2)Oc2cc(O)ccc21` [LIQUIRTIGENIN], the midpoint of inhibition in assay [3], the IC50, lay at 340 nM. `COC(=O)C1=C(C)NC(C)=C(C(=O)OC)C1c1ccccc1[N+](=O)[O-]` [NIFEDIPINE] came in with an IC50 in assay [19] of 0.5 nM.

Take `COc1cc2c(cc1OC)-c1c(OC)c(OC)cc3ccnc(c13)C2=O` [OXOGLAUCINE]: in [19], 300 nM corresponded to half-maximal inhibition (IC50). Take `Cc1[nH]c2ccccc2c1CCNCc1ccc(/C=C/C(=O)NO)cc1` [PANOBINOSTAT]: in assay [8], the IC50 is 5 nM. `COc1ccc2cc1Oc1ccc(cc1)C[C@@H]1c3cc(c(OC)cc3CCN1C)Oc1c(OC)c(OC)cc3c1[C@@H](C2)N(C)CC3` [PHAEANTHINE]: inhibition in assay [15] was half-maximal at 179 nM (IC50). With `Oc1cc(O)c2c(c1)O[C@@]1(c3ccc(O)c(O)c3)Oc3cc(O)c4c(c3[C@@H]2[C@H]1O)O[C@H](c1ccc(O)c(O)c1)[C@@H](O)C4` [PROANTHOCYANIDIN A1], the EC50 in [7] worked out at 5100 nM. In [20], `O=C(Nc1ccc(Oc2ccc(Cl)cc2)c(Cl)c1)c1cc(I)cc(I)c1O` [RAFOXANIDE] displayed an IC50 of 13000 nM. On to `Oc1ccc(/C=C/c2cc(O)cc(O)c2)cc1` [RESVERATROL], for which, in assay [4], the IC50 was 50000 nM. As for `Cc1nc(C(=O)NCC(=O)O)c(O)c2ccc(Oc3ccccc3)cc12` [ROXADUSTAT], the IC50 in [5] worked out at 10 nM.

In assay [15], `COc1ccc(-c2cc(=O)c3c(OC)c(OC)c(OC)cc3o2)cc1OC` [SINENSETIN] displayed an IC50 of 3200 nM. In assay [13], `NCCCCNCCCN` [SPERMIDINE] displayed an IC50 of 112000 nM. Consider `Cn1nccc1Nc1nccc(-c2cc3c(s2)C(C)(C)N(CCN2CCOCC2)C3=O)n1` [TEMUTERKIB], for which 5 nM corresponded to half-maximal inhibition in [2] (IC50).

Take `CC(C)(C)c1ccc(C(O)CCCN2CCC(C(O)(c3ccccc3)c3ccccc3)CC2)cc1` (stereo not given) [TERFENADINE]: in assay [21], the IC50 was 1 nM. `Clc1ccc(C(Cn2ccnc2)OCc2ccsc2Cl)c(Cl)c1` (stereo not given) [TIOCONAZOLE] came in with an IC50 in [17] of 1300 nM. `OC[C@H]1O[C@@H](Oc2ccc3c(c2)OC[C@H]2c4cc5c(cc4O[C@@H]32)OCO5)[C@H](O)[C@@H](O)[C@@H]1O` [TRIFOLIRHIZIN] yielded an IC50 in assay [22] of 506000 nM. In assay [2], `CC(C)Nc1cc(-c2c[nH]c(C(=O)N[C@H](CO)c3cccc(Cl)c3)c2)c(Cl)cn1` [ULIXERTINIB] returned an IC50 of 300 nM. In assay [21], `C[C@H]1CCCC(=O)CCC/C=C/c2cc(O)cc(O)c2C(=O)O1` [ZEARALENONE] showed an IC50 of 500 nM.

The record behind these values is ChEMBL document CHEMBL5512615, “Targeting autophagy drug discovery: Targets, indications and development trends” (Eur J Med Chem, 2024).
